The source of these data is article PMC3055912, “A Method for Structure–Activity Analysis of Quorum-Sensing Signaling Peptides from Naturally Transformable Streptococci” (Biological Procedures Online, 2009).

The structures appear in SMILES notation. Peptide text beside a SMILES is read from it.

The conditions of data set [1]: aqueous buffer 50 mM K2HPO4/KH2PO4 pH 7.0; NMR needs 1.0 to 10 mM peptide.
Method: For NMR studies, buffers, co-solvents, and additives were hydrogen-free or deuterated. Samples could be dissolved in as little as 10 μL, but typically, spectrometers were designed for sample volumes of at least 500 μL. Due to the inherently low sensitivity, concentrations of peptides ranged from 1.0 to 10 mM [13].
In our study, synthetic peptides CSP (UA159sp) and TPC3 for CD and NMR were dissolved in 95/5/0%, 70/0/30%, 30/0/70%, or 0/0/100% aqueous buffer/D2O/TFE-d2, or 95/5 aqueous buffer/D2O with 300 mM DPC-d38 (98 atom %D), where TFE refers to trifluoroethanol and DPC-d38 refers to perdeuterated dodecylphosphocholine [10, 13]. The aqueous buffer used for sample preparation contained 50 mM K2HPO4/KH2PO4 at pH 7.0. The concentration of peptides for solutions containing 100% TFE-d2 or DPC-d38 was 2 and 5 mM.
For data set [2], the system named is nlmAB promoter (PnlmAB::lacZ) in comC mutant SMdC. Put plainly: nlmAB-lacZ reporter β-gal activity, strain SMdC-PnlmAB. It counts as cell-based, Streptococcus mutans. The conditions noted are these: for time for which the high level of β-gal activity is maintained / time of highest level of β-gal activity after addition of peptide: SMdC-PnlmAB, time-course experiment. An excerpt:
(§1) To assay QS activation in response to addition of a peptide, we constructed two types of lacZ transcriptional reporter strains that represented two levels of QS-activated gene expression. The first was a lacZ reporter gene fused to the comDE promoter, which allowed monitoring of the activity of the comDE promoter in response to a test peptide. The second strain was a lacZ reporter gene fused to the promoter of nlmAB, the gene encoding a nonlantibiotic bacteriocin and its expression directly controlled by the ComE [6, 22]. This strain allowed assay of comDE-controlled bacteriocin production.
For the second reporter strain, we generated a chromosomal nlmAB–lacZ fusion strain by transforming a PnlmAB::lacZ fusion construct pOMZ47 [6] into both comC mutant SMdC and wild-type GS5. The resulting reporter strains were confirmed by PCR and sequencing of the fusion sites as described previously. The confirmed reporter strains were respectively named SMdC-PnlmAB (PnlmAB::lacZ, comC^-, Kan^r, Spec^r) and SMGS5-PnlmAB (PnlmAB::lacZ, Kan^r). The strain SMGS5-PnlmAB was used a positive control.
A lacZ reporter assay was performed to monitor quorum-sensing activation using the same method as described previously. The newly constructed lacZ reporter strains were used to assay and quantify β-galactosidase activity in response to test peptides. Aliquots of samples were taken to prepare cell lysates at different time points T0, T15, T30, T60, and T120 after addition of a test peptide. Protein concentrations of the supernatants were determined by Bio-Rad protein assay (Bio-Rad). Specific β-gal activities (A420 min^-1 mL^-1 mg^-1 protein) were calculated from triplicate samples from two independent experiments. The data from the β-gal activity experiments were then normalized against negative or background controls and plotted as percentages of maximal activation versus log peptide concentrations. The half maximal activation concentration (AC50) was determined from the sigmoidal dose–response curve using Prism 4 (Graphpad, San Diego, CA, USA).

The subject of data set [3] is comDE promoter (PcomDE::lacZ) in comC mutant SMdC. Put plainly: comDE-lacZ reporter β-gal activity, strain SMdC-pYH2. It counts as cell-based, Streptococcus mutans. The conditions noted are these: background control SMdC-pSL showed no significant difference.
Excerpt: as §1
For the first reporter strain, we simply transformed previously constructed vector pYH2 [10] into the comC mutant (SMdC) to generate SMdC-pYH2 (PcomDE::lacZ, comC^-, Spec^r, Kan^r). pYH2 was constructed in such a way that the comDE promoter was fused to a promoterless lacZ gene on the backbone of Streptococcus–Escherichia coli shuttle vector pSL. […] These strains were then assessed for lacZ reporter activity in response to addition of peptides.
A lacZ reporter assay was performed to monitor quorum-sensing activation using the same method as described previously. The newly constructed lacZ reporter strains were used to assay and quantify β-galactosidase activity in response to test peptides. […] Protein concentrations of the supernatants were determined by Bio-Rad protein assay (Bio-Rad). […]

In data set [4] the test system is S. mutans comC mutant SMdC (indicator strain Streptococcus sanguinis SK108). Put plainly: QS-controlled bacteriocin production, agar plate overlay assay. It counts as cell-based. As to conditions: for level of bacteriocins induced compared with wild-type GS5: comC mutant SMdC with peptide, inhibitory zone against S. sanguinis SK108, Figure 5. How it is done: The S. mutans comC mutant SMdC as well as its parent GS5 and wild-type strain UA159 (positive controls) were used to assay for bacteriocin production using a modified agar plate method. Briefly, an aliquot of mid-log phase cells of the S. mutans wild-type strains and mutant SMdC grown under a condition with or without use of CSP or a test peptide were stabbed onto THYE agar plates. The plates were incubated anaerobically at 37°C for 6 h before carefully overlaid with 100 μL of cell suspension (about 10^6 CFU/mL^-1) of an indicator strain Streptococcus sanguinis SK108. The plates were further incubated anaerobically at 37°C for 24 h before inspection of bacteriocin production. The S. mutans strains showing an inhibitory zone around the stabs were scored as positive for bacteriocin production. The plates were then photographed for records.

The test system of data set [5] is comDE promoter (PcomDE::lacZ) in comC mutant SMdC. The conditions noted are these: SMdC-pYH2; cited from earlier work. How it is done:
We also used this mutant (SMdC) as a host to generate two types of lacZ transcriptional reporter fusion strains to assay the promoter activity of QS-controlled target genes, comDE and nlmAB, in response to addition of CSP. The lacZ reporter strain, SMdC-pYH2 (PcomDE::lacZ, comC^-, Spec^r, Kan^r), along with its background control strain SMdC-pSL (comC^-, Spec^r, Kan^r) were then assayed for β-galactosidase activity.

For data set [6], the target named is quorum sensing (ComCDE signaling) in S. mutans lacZ reporter strains (Streptococcus mutans serotype c, UniProt Q8DS94). As to conditions: truncated peptides; cited from earlier work. An excerpt:
Based on the three-dimensional structures of S. mutans wild-type signaling peptide UA159sp (CSP) and C-terminally truncated peptide TPC3 from mutant JH1005 defective in genetic competence, we designed and synthesized a series of truncated peptides and peptides with amino acid substitutions. […] The C-terminal structural motif consisting of a sequence of polar hydrophobic charged residues is crucial for activating the signal transduction pathway, while the core α-helical structure ext ...

Data set [7] concerns S. mutans comC mutant SMdC. Kind of data set: CSP-dependent transformation (genetic competence) assay. It counts as cell-based, Streptococcus mutans. As to conditions: data not shown. The text has this: To determine if synthetic peptides activated quorum sensing for induction of genetic competence, we used the comC deletion mutant that was unable to produce, but still responded to CSP, to assay peptide-dependent genetic transformation using the method as described previously. A streptococcal suicide vector pVA-gtfA, which harbored a 2.4-kb fragment of the S. mutans gtfA gene and an erythromycin resistance marker, was used as transforming DNA. The wild-type GS5 was used as a positive control, while both ComC (SMdC) and ComE mutants (SMdE) were used as negative controls. The wild-type strain was grown on Todd–Hewitt yeast extract (THYE) medium, whereas the mutants were maintained on THYE plus spectinomycin. When culture reached to early mid-log phase (OD600 ≈ 0.25), an aliquot of CSP was added into the culture at a final concentration of 50 nM (AC50 ≈ 0.25 nM). […] Transformation frequency was expressed as percentage of transformants against total viable recipient cells per milliliter cell suspension. […]
7. All the plates are incubated at 37°C for 2 days before assessment of transformation frequency, which is expressed as percentages of transformants (erythromycin-resistant colonies) against total recipient cells per […] cell suspension. […]

Chain of quorum sensing (ComCDE signaling) in S. mutans lacZ reporter strains (Q8DS94 entry or part of it): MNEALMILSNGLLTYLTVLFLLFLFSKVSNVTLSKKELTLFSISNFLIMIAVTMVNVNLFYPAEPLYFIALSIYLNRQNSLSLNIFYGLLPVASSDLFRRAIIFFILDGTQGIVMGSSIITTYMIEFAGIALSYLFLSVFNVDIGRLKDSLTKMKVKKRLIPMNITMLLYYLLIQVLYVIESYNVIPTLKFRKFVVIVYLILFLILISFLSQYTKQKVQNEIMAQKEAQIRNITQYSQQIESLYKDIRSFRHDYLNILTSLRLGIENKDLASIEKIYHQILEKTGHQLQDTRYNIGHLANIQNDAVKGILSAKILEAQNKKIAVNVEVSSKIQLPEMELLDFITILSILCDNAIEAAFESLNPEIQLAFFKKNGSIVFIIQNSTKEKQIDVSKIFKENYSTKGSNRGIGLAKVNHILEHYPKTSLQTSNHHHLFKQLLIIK

`CC(C)C[C@H](NC(=O)[C@H](CCCNC(=N)N)NC(=O)[C@H](Cc1ccccc1)NC(=O)[C@H](Cc1ccccc1)NC(=O)[C@@H](NC(=O)[C@H](CO)NC(=O)[C@H](CC(C)C)NC(=O)[C@@H](NC(=O)CNC(=O)[C@@H](N)CO)[C@@H](C)O)[C@@H](C)O)C(=O)N[C@@H](Cc1ccccc1)C(=O)N[C@@H](CC(N)=O)C(=O)N[C@@H](CCCNC(=N)N)C(=O)N[C@@H](CO)C(=O)N[C@@H](Cc1ccccc1)C(=O)N[C@H](C(=O)N[C@@H](CCC(N)=O)C(=O)N[C@@H](C)C(=O)O)[C@@H](C)O` [TPC3 (JH1005sp)] (H-SGTLSTFFRLFNRSFTQA-OH): in data set [1], the “solubility in water for NMR” value is reported as “not soluble enough for extensive NMR studies”.

With `CC(C)C[C@H](NC(=O)[C@H](C)NC(=O)[C@H](CCC(N)=O)NC(=O)[C@@H](NC(=O)[C@H](Cc1ccccc1)NC(=O)[C@H](CO)NC(=O)[C@H](CCCNC(=N)N)NC(=O)[C@H](CC(N)=O)NC(=O)[C@H](Cc1ccccc1)NC(=O)[C@H](CC(C)C)NC(=O)[C@H](CCCNC(=N)N)NC(=O)[C@H](Cc1ccccc1)NC(=O)[C@H](Cc1ccccc1)NC(=O)[C@@H](NC(=O)[C@H](CO)NC(=O)[C@H](CC(C)C)NC(=O)[C@H](CO)NC(=O)CNC(=O)[C@@H](N)CO)[C@@H](C)O)[C@@H](C)O)C(=O)NCC(=O)N[C@@H](CCCCN)C(=O)O` [CSP (UA159sp), reference compound] (H-SGSLSTFFRLFNRSFTQALGK-OH), in data set [2], the “time for which the high level of β-gal activity is maintained” value is “at least 2 h” and the “time of highest level of β-gal activity after addition of peptide” value is “around 90 min”. Moreover, in data set [3], the “induction of β-gal activity upon addition of peptide” value was “induced to express predicted β-gal activity”. Also, in data set [4], the “level of bacteriocins induced compared with wild-type GS5” value is “induce the same level of bacteriocins as GS5”. Further, the “solubility in water for NMR” value in data set [1] is “not soluble enough for extensive NMR studies”. The “time after addition at which expression of β-gal activity declined” value in data set [5] was “around 40 min”.

Consider `CC(C)C[C@H](NC(=O)[C@H](C)NC(=O)[C@H](CCC(N)=O)NC(=O)[C@@H](NC(=O)[C@H](Cc1ccccc1)NC(=O)[C@H](CO)NC(=O)[C@H](CCCNC(=N)N)NC(=O)[C@H](CC(N)=O)NC(=O)[C@H](Cc1ccccc1)NC(=O)[C@H](CC(C)C)NC(=O)[C@H](CCCNC(=N)N)NC(=O)[C@H](Cc1ccccc1)NC(=O)[C@H](Cc1ccccc1)NC(=O)[C@@H](NC(=O)[C@H](CO)NC(=O)[C@H](CC(C)C)NC(=O)[C@H](CO)NC(=O)CNC(=O)[C@@H](N)CO)[C@@H](C)O)[C@@H](C)O)C(=O)NCC(=O)O` [TPC1] (H-SGSLSTFFRLFNRSFTQALG-OH; N-terminus and C-terminus assumed), for which the “agonist function, AC50 compared with CSP” value in data set [6] is listed as “functioned as agonists with AC50 values similar to CSP”.

On to `CC(C)C[C@H](NC(=O)[C@H](C)NC(=O)[C@H](CCC(N)=O)NC(=O)[C@@H](NC(=O)[C@H](Cc1ccccc1)NC(=O)[C@H](CO)NC(=O)[C@H](CCCNC(=N)N)NC(=O)[C@H](CC(N)=O)NC(=O)[C@H](Cc1ccccc1)NC(=O)[C@H](CC(C)C)NC(=O)[C@H](CCCNC(=N)N)NC(=O)[C@H](Cc1ccccc1)NC(=O)[C@H](Cc1ccccc1)NC(=O)[C@@H](NC(=O)[C@H](CO)NC(=O)[C@H](CC(C)C)NC(=O)[C@@H](N)CO)[C@@H](C)O)[C@@H](C)O)C(=O)NCC(=O)N[C@@H](CCCCN)C(=O)O` [TPN2] (H-SLSTFFRLFNRSFTQALGK-OH; N-terminus and C-terminus assumed), for which the “agonist function, AC50 compared with CSP” value in data set [6] was “functioned as agonists with AC50 values similar to CSP”.

Consider `CC(C)C[C@H](NC(=O)[C@H](C)NC(=O)[C@H](CCC(N)=O)NC(=O)[C@@H](NC(=O)[C@H](Cc1ccccc1)NC(=O)[C@H](CO)NC(=O)[C@H](Cc1ccccc1)NC(=O)[C@H](CC(N)=O)NC(=O)[C@H](Cc1ccccc1)NC(=O)[C@H](CC(C)C)NC(=O)[C@H](CCCNC(=N)N)NC(=O)[C@H](Cc1ccccc1)NC(=O)[C@H](Cc1ccccc1)NC(=O)[C@@H](NC(=O)[C@H](CO)NC(=O)[C@H](CC(C)C)NC(=O)[C@@H](N)CO)[C@@H](C)O)[C@@H](C)O)C(=O)NCC(=O)O` [SPA-18] (H-SLSTFFRLFNFSFTQALG-OH; N-terminus and C-terminus assumed), for which, in data set [2], the “time for which the high level of β-gal activity is maintained” value was “at least 2 h” and the “time of highest level of β-gal activity after addition of peptide” value was “around 90 min”. Also, the “replacement of CSP in activating quorum sensing” value in data set [2] (β-gal activity of SMdC-PnlmAB, Figure 4) is reported as “could completely replace CSP (UA159sp)”. Also, the “replacement of CSP in inducing bacteriocin production” value in data set [4] (Figure 5) was “could completely replace CSP (UA159sp)”. Further, the “level of bacteriocins induced compared with wild-type GS5” value in data set [4] was “induce the same level of bacteriocins as GS5”. Further, the “replacement of CSP in inducing genetic competence” value in data set [7] is reported as “could completely replace CSP (UA159sp)”.
